The TGI is the concentration giving total growth inhibition. A lower TGI goes with more potent growth arrest.

For 23 molecules, TGI results are on record in PubChem BioAssay (NCI).

SMILES strings stand for the structures.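 In this assay, cells in 96-well plates receive the compound at five concentrations for 48 hours. Endpoints are linearly interpolated between the surrounding concentrations. TGI: total growth inhibition.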 *1 amine or outer side, *2 acyl side, *3 side chain or, on linkers, in order; H or OH if unused. Where a SMILES comes first, the peptide text is derived from it. Bridges are numbered along the chain shown (N, C = ends). Roman numbers before positions name the chains, in order. [ ]: non-standard residue; d: D form. Actinocin(9to1) = Cc1c2oc3c(C)ccc(C(=O)[*:1])c3nc-2c(C(=O)[*:2])c(N)c1=O; Hyp = O=C(O)[CH]1C[CH](O)CN1; NMeV = CN[CH](C(=O)O)C(C)C; Sar = CNCC(=O)O

Experiment in all cases: DTP human tumour cell line panel, 48 h
The subject of assay [1] is HCT-15 colon.
The subject of assay [2] is SR leukemia.
The test system of assay [3] is K-562 leukemia.
Assay [4] deals with KM12 colon.
In assay [5] the test system is OVCAR-5 ovarian.
Assay [6] deals with OVCAR-4 ovarian.
The subject of assay [7] is MDA-N.
In assay [8] the test system is DU-145 prostate.
In assay [9] the test system is RPMI-8226 leukemia.
In assay [10] the test system is A498 renal.

Turning to `O=C1CSC(c2ccc([N+](=O)[O-])cc2)N1c1ccc(-c2ccc(-n3c(-c4ccccc4)nc4ccccc4c3=O)cc2)cc1` (stereo not given), the TGI is above 100 µM in [1]; 87 µM in [2]; above 100 µM in assay [3]; above 100 µM in assay [4]; above 100 µM in assay [5]; above 100 µM in assay [6]. In addition, the TGI in [7], in assay [8], in assay [9] and in [10] was above 100 µM in each case.
On to `CCN(CC)CC1CN=C(N)O1` (stereo not given), for which the TGI in [1], in assay [2], in assay [3], in assay [4], in assay [5] and in assay [6] was above 100 µM throughout. The concentration for total growth inhibition (TGI) in assay [7], in [8], in assay [9] and in [10] was above 100 µM each time.
As for `O=c1c2cnccc2cc2c3ccccc3ccn12`, the TGI in assay [1], in assay [2], in assay [3], in [4], in [5] and in assay [6] was above 100 µM in each case. Moreover, the TGI in assay [7], in [8], in assay [9] and in assay [10] was above 100 µM in each case.
As for `COC(=O)C1=C(O)CCCC(C2CCCCC(=O)C2C(=O)OC)=C1` (stereo not given), the TGI in assay [1], in [2], in assay [3], in assay [4], in [5] and in assay [6] was above 100 µM throughout. In addition, the TGI in assay [7] was above 100 µM; in assay [8], above 100 µM; in assay [9], above 100 µM; in [10], 58.7 µM.
With `COC(=O)C1=C(C(=O)OC)C(N(C)C)C(C(=O)OC)=C(C(=O)OC)S1`, the TGI in assay [1], in assay [2], in assay [3], in assay [4], in assay [5] and in assay [6] was above 100 µM throughout. For the same molecule, the TGI in assay [7], in assay [8], in assay [9] and in [10] was above 100 µM in each case.
In the case of `Cc1c2oc3c(C)ccc(C(=O)NC4C(=O)NC(C(C)C)C(=O)N5CC(O)CC5C(=O)N(C)CC(=O)N(C)C(C(C)C)C(=O)OC4C)c3nc-2c(C(=O)NC2C(=O)NC(C(C)C)C(=O)N3CC(O)CC3C(=O)N(C)CC(=O)N(C)C(C(C)C)C(=O)OC2C)c(N)c1=O` (stereo not given) (I: TV[Hyp][Sar][NMeV] / II: TV[Hyp][Sar][NMeV]; ester I:1-I:C, II:1-II:C; linker I:N-II:N via Actinocin(9to1); configuration not given here), the concentration for total growth inhibition (TGI) in assay [1], in assay [2], in assay [3], in assay [4], in assay [5] and in assay [6] was above 1 µM each time. Besides, the TGI in assay [7], in [8], in assay [9] and in [10] was above 1 µM throughout.
Turning to `COc1ccc(NC(C(N)=O)c2cc3cc(Br)ccc3nc2Cl)cc1` (stereo not given), the TGI in assay [1] is above 100 µM; in assay [2] it was 51.6 µM; in [3], above 100 µM; in assay [4], above 100 µM; in assay [5], above 100 µM; in assay [6] it was above 100 µM. The TGI in assay [7], in [8], in assay [9] and in [10] was above 100 µM each time.
For the molecule `c1ccc(Nc2nn3c(CCCCCCCCc4nnc5sc(Nc6ccccc6)nn45)nnc3s2)cc1`, the TGI in assay [1] was above 100 µM; in [2], 38.3 µM; in assay [3] it was 37.6 µM; in assay [4], above 100 µM; in [5], above 100 µM; in assay [6], above 100 µM. Also, the TGI was 46.6 µM in assay [7], above 100 µM in [8], above 100 µM in assay [9] and above 100 µM in assay [10].
As to `O=C(C/C(=N/O)C(F)(F)F)c1cccs1`, the TGI in [1], in assay [2], in [3], in assay [4], in assay [5] and in assay [6] was above 100 µM throughout. In addition, the TGI in [7], in assay [8], in [9] and in [10] was above 100 µM throughout.
Consider `N/C(=N\Nc1ccc(Cl)cc1)c1cnccn1`, for which the concentration for total growth inhibition (TGI) in [1], in [2], in [3], in [4], in assay [5] and in assay [6] was above 100 µM throughout. In addition, the TGI in [7], in assay [8], in [9] and in assay [10] was above 100 µM each time.
In the case of `CN(O)C(=O)CCCC(=O)NCC(C)(C)CNC(=O)CCCC(=O)N(C)O`, the TGI in [1], in assay [2], in [3], in assay [4], in assay [5] and in [6] was above 100 µM each time. Further, the TGI in [7], in assay [8], in [9] and in assay [10] was above 100 µM in each case.
As for `C#C[C@@]1(O)CCCC2=CC3(CC[C@]21C)SCCS3`, the TGI in assay [1], in [2], in assay [3], in [4], in [5] and in assay [6] was above 100 µM throughout. The TGI in [7], in [8], in [9] and in assay [10] was above 100 µM in each case.
Regarding `O=C1CC(=O)NC(=NN2C(=O)CSC2C(=O)c2ccco2)N1` (stereo not given), the TGI in assay [1], in [2], in assay [3], in assay [4], in assay [5] and in assay [6] was above 100 µM each time. Moreover, the total growth inhibition concentration (TGI) in assay [7], in assay [8], in assay [9] and in assay [10] was above 100 µM throughout.
For `Cn1c2ccccc2c2cc(N3CCCC3)c3c(c21)C(=O)N(c1ccccc1)C3=O`, the TGI in assay [1], in [2], in [3], in assay [4], in assay [5] and in [6] was above 100 µM in each case. The TGI in [7], in assay [8], in [9] and in assay [10] was above 100 µM in each case.
Consider `CCOC(=O)CCN1C(=O)C(=O)N(c2ccc(OC)cc2)C1=S`, for which the TGI in assay [1], in assay [2], in [3], in assay [4], in assay [5] and in assay [6] was above 100 µM each time. Also, the TGI in assay [7], in [8], in [9] and in assay [10] was above 100 µM in each case.
In the case of `CCN(CC)c1ccc(/C=C2\CCc3ccc([N+](=O)[O-])cc3C2=O)cc1`, the concentration for total growth inhibition (TGI) in assay [1], in assay [2], in assay [3], in [4], in assay [5] and in assay [6] was above 100 µM in each case. Further, the TGI in [7] was 0.523 µM; in assay [8], above 100 µM; in [9], above 100 µM; in assay [10], 69.9 µM.
With `COc1cccc2cc(C(=O)Nc3ccccc3)c(=N)oc12`, the TGI in assay [1], in assay [2], in [3], in [4], in [5] and in [6] was above 100 µM in each case. The TGI in [7], in assay [8], in assay [9] and in assay [10] was above 100 µM in each case.
With `C=CCOC(=O)N1c2ccc(O)cc2[C@@]23O[C@@]24[C@@H]1C#C/C=C\C#C[C@]3(O)C(OC)(OC)C[C@@H]4C`, the concentration for total growth inhibition (TGI) in assay [1] is above 100 µM; in assay [2] it was 62.2 µM; in assay [3], above 100 µM; in assay [4], 69.7 µM; in assay [5], above 100 µM; in [6], 47.2 µM. Moreover, the TGI was 77.5 µM in assay [7], above 100 µM in assay [8], 91.5 µM in [9] and 67.6 µM in [10].
For the molecule `Cc1cc2c(cc1C)C(=O)C1(C2)Cc2cc3c(cc2C1=O)CCC3` (stereo not given), the TGI in assay [1], in [2], in assay [3], in assay [4], in assay [5] and in assay [6] was above 100 µM each time. Besides, the TGI in assay [7], in assay [8], in assay [9] and in assay [10] was above 100 µM throughout.
With `O=[N+]([O-])c1cc(F)ccc1S(=O)(=O)c1ccccc1`, the TGI in [1], in [2], in [3], in assay [4], in assay [5] and in assay [6] was above 10 µM in each case. The TGI in assay [7], in assay [8], in assay [9] and in assay [10] was above 10 µM throughout.
Regarding `O=c1[nH]c2nccn2c2c1SCCN2`, the TGI in [1], in assay [2], in assay [3], in [4], in assay [5] and in assay [6] was above 100 µM in each case. Further, the total growth inhibition concentration (TGI) in assay [7], in [8], in assay [9] and in assay [10] was above 100 µM in each case.
Consider `COc1ccc2c(c1)NC1(CCN(CCCC(=O)c3ccc(F)cc3)CC1)N=N2`, for which the TGI in [1] was 52.4 µM; in assay [2], 35.4 µM; in assay [3], 41 µM; in [4], 41 µM; in assay [5], 61.1 µM; in assay [6], above 100 µM. Also, the TGI in assay [7] is 31.6 µM; in assay [8] it was 46.8 µM; in assay [9], 42.2 µM; in assay [10] it was 76.7 µM.
As to `C=CCOC(OCC=C)/C(Br)=C/C`, the TGI in assay [1] was 89.3 µM; in assay [2], above 100 µM; in assay [3], above 100 µM; in assay [4], above 100 µM; in assay [5] it was above 100 µM; in assay [6], 63.7 µM. Moreover, the total growth inhibition concentration (TGI) in assay [7], in [8], in [9] and in assay [10] was above 100 µM throughout.
